In brackets after ≈: the same amount, converted by molar mass.
Columns and labels:
Type in all cases: physicochemical
[1] = Effect of stabilizers on stability of Compound 1 capsule matrix (A1 formation)
Method: Two antioxidants, α-tocopherol and ascorbyl palmitate, were evaluated to minimize the oxidation. Use of α-tocopherol alone improved Compound 1 stability as measured by the formation of A1 (see Table 1). When ascorbyl palmitate was combined with α-tocopherol, further stability improvement was observed. Table 14 summarizes the compositions of the Compound 1 capsule matrix evaluated and Table 15 summarizes the effect of α-tocopherol and ascorbyl palmitate as stabilizers on the stability of Compound 1.

[2] = Solubility screen of Compound 1 in lipids; details: oil or lipid
[3] = Solubility of Compound 1 (freebase form) in dosing vehicles, HPLC; details: shaken five days, 25° C. (40° C. semi-solid, 50° C. solid vehicles)
Method: This study was carried out to evaluate the solubility of Compound 1 (freebase form) in a variety of dosing vehicles to identify excipient classes that maximize drug solubility. A total of 20 vehicles which were selected and agreed with the customer were used in this study. Compound 1 was added to approximately 1 gram of the excipients. After the initial addition of Compound 1, the mixtures were shaken in a temperature-controlled vortex mixer at 25° C. (40° C. for vehicles that were semi-solid at room temperature and 50° C. for solid vehicles) then examined for solid residues. If dissolution was observed during the mixing time, additional Compound 1 was added until no further dissolution was observed. After shaking for a total of five days, the suspensions were filtered using a centrifuge tube with 0.45 PVDF membrane filter (Millipore Durapore®). The filtrate was weighed in to a 25-mL volumetric flask and diluted to volume with the diluent solution (90:10% v/v IPA/Acetonitrile) for a determination of Compound 1 concentration via High Performance Liquid Chromatography (HPLC). Residual solids were inspected by PXRD to determine the solid form. Quantitative determination of the amount of API dissolved was performed using reverse-phase HPLC analyses on an Agilent 1290 Infinity II UHPLC system equipped with a Diode Array Detector (DAD). Agilent 1290 Infinity II UHPLC system equipped with a Diode Array Detector (DAD) Mobile Phase A: 0.05% Formic acid in water Mobile Phase B: 0.05% Formic acid in acetonitrile

For `CC(C)N(C)c1ccc([C@H]2C[C@@]3(C)[C@@H](CC[C@@]3(O)C#CC(C)(C)C)[C@@H]3CCC4=CC(=O)CC[C@@H]4[C@H]32)cc1` [Compound 1, (8R,9S,10R,11S,13S,14S,17S)-17-(3,3-dimethylbut-1-yn-1-yl)-17-hydroxy-11-(4-(isopropyl(methyl)amino)phenyl)-13-methyl-1,2,6,7,8,9,10,11,12,13,14,15,16,17-tetradecahydro-3H-cyclopenta[a]phenanthren-3-one], the “Formation of A1” value ([1]; combination of α-tocopherol and ascorbyl palmitate as stabilizers) was “substantially suppresses”, the “Formation of primary oxidative N-demethylation product (A1)” value ([1]; in caprylic acid, extended stability, after about 4-6m) was “greater than 4%” and the “Compound 1 stability as measured by the formation of A1” value ([1]; use of α-tocopherol alone) was “improved”. The Solubility ([2]; in Capmul MCM (Glyceryl monocaprylcaprate, Type I, NF)) was less than 40 mg/mL, the Solubility ([2]; in Capryol 90 (Propylene glycol monocaprylate, Type II, NF)) was 40 mg/mL (≈ 79.7 mM) and the Solubility ([2]; in Capryol 90 + 5% Poloxamer P188 USP, particulate seen after 24 hours) was 50 mg/mL. For the same compound, the Solubility ([2]; in Kolliphor EL (PEG-35 Castor Oil USP)) was less than 40 mg/mL, the Solubility ([2]; in Labrasol ALF (Caprylocaproyl Polyoyl-8 glycerides, NF)) was 40 mg/mL (≈ 79.7 mM) and the Solubility ([2]; in Maisine CC (Caprylic/capric triglyceride NF)) was less than 40 mg/mL. The Solubility ([2]; in Tween 20 (Polysorbate 20 NF)) was less than 40 mg/mL, the Solubility ([2]; in Tween 80 (polysorbate 80 NF)) was less than 40 mg/mL and the Solubility ([3]; in Caprylocaproyl polyoxyl-8 glycerides) was 42.4 mg/g. For the same compound, the Solubility ([3]; in Decanoic acid (Capric acid)) was 201.0 mg/g, the Solubility ([3]; in Diethyl glycol monoethyl ether) was 130.3 mg/g and the Solubility ([3]; in Glycerin) was 0.1 mg/g. For the same compound, the Solubility ([3]; in Glyceryl caprylate/caprate) was 79.0 mg/g, the Solubility ([3]; in Glyceryl monolinoleate) was 41.2 mg/g and the Solubility ([3]; in Lauroyl polyoxyl-6 glycerides) was 40.8 mg/g. The Solubility ([3]; in Lauroyl polyoxyl-32 glycerides) was 39.2 mg/g, the Solubility ([3]; in Medium chain triglycerides) was 26.1 mg/g and the Solubility ([3]; in Octanoic acid (Caprylic acid)) was 199.2 mg/g. It also gave a Solubility ([3]; in PEG 400) of 14.5 mg/g, a Solubility ([3]; in Polyethylene glycol monostearate) of 34.2 mg/g and a Solubility ([3]; in Polyethylene glycol sorbitan monolaurate) of 26.1 mg/g. It also gave a Solubility ([3]; in Propylene Glycol) of 12.1 mg/g, a Solubility ([3]; in Propylene glycol monocaprylate) of 139.6 mg/g and a Solubility ([3]; in Propylene glycol monolaurate) of 68.4 mg/g. It also gave a Solubility ([3]; in Sorbitan Monolaurate) of 34.1 mg/g, a Solubility ([3]; in Sorbitan monooleate) of 19.5 mg/g and a Solubility ([3]; in Triacetin) of 21.9 mg/g. For the same compound, the Solubility ([3]; in Vitamin E TPGS) was 8.3 mg/g.
